What was measured:
[1] = test system: alcohol metabolic function of liver; test: Effect on Concentration of Ethyl alcohol in the Blood; type: in vivo, mice; conditions: 250 mg/kg oral, 6 h before ethyl alcohol 1,000 mg/kg
Protocol: After 6 hours, 1,000 mg/kg of ethyl alcohol was given orally. Blood was taken in a capillary from caudal vein at the time indicated in the results. The plasma was obtained by centrifugation. The concentration of ethyl alcohol in the plasma was measured by FID type gas liquid chromatography. Five mice were used for each group.

[2] = test system: fatty liver induced by carbon tetrachloride; test: Therapeutic Effect on Fatty Liver (carbon tetrachloride); type: in vivo, rats (SD strain); conditions: 10 days; for Degree of fatty liver (histopathological examination): one symbol per animal
Protocol: Methods: […] The treated animals were left for 3 days after the last administration to maximize the manifestation of fatty liver. […] It was orally given everyday for 10 days at the dose of 50 or 250 mg/kg. On the 11th day, the animals were sacrificed. The therapeutic effect was evaluated by determining the content of liquid in the liver (triglyceride and total lipid) and examining the histopathological changes. Triglyceride and total lipid were determined colorimetrically by chromotropic acid method and Bragdon's oxidation method, respectively. Indices for the histopathological change is as follows: […]

[3] = test system: acute liver damage induced by carbon tetrachloride; test: Protective Effect on Acute Liver Damage associated with Centrilobular Necrosis (carbon tetrachloride); type: in vivo, mice (dd-strain); conditions: 250 mg/kg oral, average of 5 to 6 mice
Excerpt: Carbon tetrachloride (CCl4) administration induces centrilobular necrosis of the liver associated with loss of diphosphopyridine nucleotide, hepatic glycogen, coenzyme A and increase in neutral fat. Release of several enzymes from the hepatocytes, and increase of enzyme activities in the plasma are recognized as the result of the damage of the liver. A suitable means for evaluating the degree of damage induced by CCl4 or the degree of protection afforded by drugs is to study the plasma glutamic-pyruvic transminase (p-GPT) activity.
Methods: The test compounds were dissolved or suspended in olive oil and administered orally at the dose of 250 mg/kg to the mice (Four-week-old male mice-dd strain). After 6 hours, CCl4 was administered orally (0.05 ml/kg as olive oil solution). Animals were killed 24 hours after CCl4 administration, and the liver was grossly observed. The plasma was obtained by centrifugation. Activities of p-GPT were determined by the method of Reitman and Frankel and expressed in Karmen units.
Score for liver damage index was as follows:
4 Clearly observable damage
Each figure indicates average of 5 to 6 mice. Values of p-GPT over 1,000 Karmen unit regarded as 1,000 for calculation of average for convenience.

[4] = test system: excretion of biliary salt; test: Cholagogic Action: effect on the excretion of biliary salt; type: in vivo, rats (SD-JCL strain); conditions: 200 mg/kg oral; for Excretion of biliary salt: before treatment = 100
Protocol: (§1) Drugs as choleresis are used for patients to improve bile flow. In the present example, the effect of the compound of the invention on the quantities of bile and biliary salt is investigated. Methods:
(§2) The male rats (4 week-aged, SD-JCL strain) were anesthetized with sodium pentobarbital (37.5 mg/kg, intraperitoneal injection). The abdominal cavity was opened through a midline incision. The common bile duct was catheterized with polyethylene tube o.d. 0.8 mm. The catheter was brought to the outside through the abdominal incision would prior to closing. Bile was collected from the catheter continuously with time intervals of one hour. The quantity of bile produced in one hour was determined by weighing and that of biliary salt was determined by enzymatic method (Ikagaku Jikkenho Koza 1B, Biological Constituents II, edited by Tamio YAMAKAWA). The amount of biliary salt was represented in the term of cholic acid equivalent.
(§3) In the representation of the results, the quantities of bile and biliary salt produced in one hour prior to the administration of drug were taken as 100. The compound of this invention was orally administered at the dose of 200 mg/kg. As reference, anethol trithion was used.

[5] = test system: fatty liver induced by ethionine; test: Effect on Fatty Liver (ethionine); type: in vivo, mouse (dd-strain); conditions: 250 mg/kg oral, 24 h, 10 animals
Excerpt: But, the fatty liver is grouped into a couple of patterns from the mechanism of lipid accumulation or metabolism of lipoprotein in the liver. Ethionine is a typical example which induces first pattern of fatty liver. It inhibits RNA and protein synthesis and destructs polysome of the liver cell. Fatty liver is induced by inhibition of the protein synthesis and disturbance of lipoprotein secretion.
Usually, fatty liver is closely related to the accumulation of triglyceride in the liver. In the present example, the degree of fatty liver and protective or therapeutic effect against the fatty liver was evaluated by measurement of triglyceride content in the liver. Methods:
The compounds of this invention and methionine were independently dissolved or suspended into olive oil and administered orally to 4 week-old male mouse (dd-strain) at the dose of 250 mg/kg. One hour before it, simultaneously to it, or one hour after it, ethionine dissolved in equimolar NaOH solution was administered intraperitoneally at the dose of 200 mg/kg. Twenty four hours after the administration of ethionine, the animals were sacrificed and triglyceride content in the liver was determined by chromotropic acid method.

bile flow = test: Cholagogic Action: effect on bile flow; type: in vivo, rats (SD-JCL strain); conditions: 200 mg/kg oral; for Bile flow: before treatment = 100
Protocol: as §1, §2, §3

glucose metabolism [6] = test: Effect on glucose metabolism; type: in vivo, mice; conditions: 250 mg/kg oral, 6 h before glucose 4.0 g/kg
Protocol: The test compounds dissolved in olive oil and administered orally at the dose of 250 mg/kg to the mice. After 6 hours, 4.0 g/kg of glucose was orally administered. The same amount of glucose was given to the control animals. 0.02 ml of blood was taken from caudal vein of the mice at 30, 60, 90 and 120 min. after glucose administration. Blood sugar was measured by the procedure of Somogyi-Nelson. Number of animals used was 5 to 6 mice for each treatment.

glucose metabolism [7] = test: Effect on glucose metabolism; type: in vivo, mice; conditions: 250 mg/kg oral, 6 h before glucose 4.0 g/kg; 0 min

CCOC(=O)C(C(=O)OCC)=C1SCC(O)S1 (stereo not drawn) [Compound 1, Diethyl 4-hydroxy-1,3-dithiolan-2-ylidene malonate]
Concentration of Ethyl alcohol in Plasma ([1]; 0 min): 12±3 ppm
Concentration of Ethyl alcohol in Plasma ([1]; 5 min): 732±102 ppm
Concentration of Ethyl alcohol in Plasma ([1]; 15 min): 710±88 ppm
Concentration of Ethyl alcohol in Plasma ([1]; 30 min): 455±112 ppm
Concentration of Ethyl alcohol in Plasma ([1]; 60 min): 12±7 ppm
Total lipid ([2]; 50 mg/kg oral): 80.2 ± 9.8 mg/g-liver
Triglyceride ([2]; 50 mg/kg oral): 36.2 ± 7.8 mg/g-liver
Degree of fatty liver (histopathological examination) ([2]; 50 mg/kg oral): ± + ± ± ± ± +
Total lipid ([2]; 250 mg/kg oral): 70.3 ± 10.2 mg/g-liver
Triglyceride ([2]; 250 mg/kg oral): 24.9 ± 8.2 mg/g-liver
Degree of fatty liver (histopathological examination) ([2]; 250 mg/kg oral): ± ± - - ± ± ±
Liver damage index ([3]; 6 h before CCl4 (0.05 ml/kg oral), score 0 Normal, 2 slight, 4 clear, 6 heavy damage): 0.5
p-GPT (plasma glutamic-pyruvic transaminase activity) ([3]; 6 h before CCl4, 24 h after CCl4, values over 1,000 regarded as 1,000): 66 Karmen units
Excretion of biliary salt ([4]; 1 hour after treatment): 103 ± 6.8
Excretion of biliary salt ([4]; 2 hours after treatment): 102 ± 6.6
Excretion of biliary salt ([4]; 3 hours after treatment): 100 ± 5.8
Excretion of biliary salt ([4]; 4 hours after treatment): 95 ± 7.7
Amount of total excreted biliary salts relative to control ([4]; 5 hours after administration): 1.40 times
Excretion of biliary salt ([4]; 5 hours after treatment): 86 ± 5.2
Triglyceride ([5]; compound 1 hr after ethionine): 11.8 ± 0.72 mg/g-liver
Triglyceride ([5]; compound 1 hr before ethionine (200 mg/kg i.p.)): 12.3 ± 0.82 mg/g-liver
Triglyceride ([5]; simultaneous with ethionine (0 hr)): 7.1 ± 0.24 mg/g-liver
Bile flow (bile flow; 1 hour after treatment): 110 ± 1.8
Bile flow (bile flow; 2 hours after treatment): 115 ± 6.8
Bile flow (bile flow; 3 hours after treatment): 105 ± 6.2
Bile flow (bile flow; 4 hours after treatment): 98 ± 8.2
Quantity of total excreted bile relative to control (bile flow; 5 hours after administration): 1.10 times
Bile flow (bile flow; 5 hours after treatment): 80 ± 6.8
Blood Sugar (glucose metabolism [6]; 30 min): 260 ± 20.4 mg/dL
Blood Sugar (glucose metabolism [6]; 60 min): 228 ± 15.2 mg/dL
Blood Sugar (glucose metabolism [6]; 90 min): 188 ± 11.3 mg/dL
Blood Sugar (glucose metabolism [6]; 120 min): 132 ± 10.4 mg/dL
Blood Sugar (glucose metabolism [7]): 138 ± 18.2 mg/dL

Source: patent US4080466A, “Pharmaceutical compositions containing 4-hydroxyl-1,3-dithiolan-2-ylidene malonates” (Nihon Nohyaku Co., Ltd., priority 1976, dated 1978)
